Assay results as given in ChEMBL document CHEMBL2046382, “Synthesis, biological evaluation of 5-carbomethoxymethyl-7-hydroxy-2-pentylchromone, 5-carboethoxymethyl-4',7-dihydroxyflavone and their analogues” (Bioorg Med Chem Lett, 2012).
Converted amounts (≈) assume the structure as drawn. The source made the active and inactive calls. The rule behind the calls is not given here.

Experiments:
Staphylococcus aureus [1] = test: Antibacterial activity against Staphylococcus aureus MTCC 2940 at 80 ug/ml by modified microtiter broth dilution method; format: functional, organism-based
[2] = Antioxidant activity of the compound assessed as inhibition of lipid peroxidation; format: functional
Raoultella planticola [3] = test: Antibacterial activity against Klebsiella planticola MTCC 530 at 80 ug/ml by modified microtiter broth dilution method; format: functional, organism-based
Escherichia coli [4] = test: Antibacterial activity against Escherichia coli MTCC 739 at 80 ug/ml by modified microtiter broth dilution method; format: functional, organism-based
Staphylococcus aureus [5] = test: Antibacterial activity against Staphylococcus aureus MTCC 96 at 80 ug/ml by modified microtiter broth dilution method; format: functional, organism-based
[6] = Antioxidant activity assessed as superoxide radical scavenging activity; format: functional
Pseudomonas aeruginosa [7] = test: Antibacterial activity against Pseudomonas aeruginosa MTCC 2453 by modified microtiter broth dilution method; format: functional
Bacillus subtilis [8] = test: Antibacterial activity against Bacillus subtilis MTCC 121 at 80 ug/ml by modified microtiter broth dilution method; format: functional, organism-based
[9] = system: Radical scavenging activity; test: Antioxidant activity assessed as DPPH free radical scavenging activity; format: functional
[10] = Antioxidant activity in erythrocytes assessed as inhibition of hemolysis; format: functional, cell-based; conditions: erythrocyte
Micrococcus luteus [11] = test: Antibacterial activity against Micrococcus luteus MTCC 2470 at 80 ug/ml by modified microtiter broth dilution method; format: functional, organism-based
Erythrocyte = test: Antioxidant activity in erythrocytes assessed as inhibition of hemolysis after 48 hrs; format: functional, cell-based
[12] = system: Radical scavenging activity; test: Antioxidant activity assessed as DPPH free radical scavenging activity after 48 hrs; format: functional
Escherichia coli [13] = test: Antibacterial activity against Escherichia coli MTCC 739 by modified microtiter broth dilution method; format: functional
[14] = Antioxidant activity assessed as superoxide radical scavenging activity after 48 hrs; format: functional
Bacillus subtilis [15] = test: Antibacterial activity against Bacillus subtilis MTCC 121 by modified microtiter broth dilution method; format: functional
NCI60 = test: Cytotoxicity against human NCI60 cells; format: functional, cell-based
[16] = Antioxidant activity of the compound assessed as inhibition of lipid peroxidation after 48 hrs; format: functional
[17] = Chemical stability of the compound in antioxidant reaction; format: physicochemical
Pseudomonas aeruginosa [18] = test: Antibacterial activity against Pseudomonas aeruginosa MTCC 2453 at 80 ug/ml by modified microtiter broth dilution method; format: functional, organism-based
Staphylococcus aureus [19] = test: Antibacterial activity against Staphylococcus aureus MTCC 2940 by modified microtiter broth dilution method; format: functional
Raoultella planticola [20] = test: Antibacterial activity against Klebsiella planticola MTCC 530 by modified microtiter broth dilution method; format: functional
Micrococcus luteus [21] = test: Antibacterial activity against Micrococcus luteus MTCC 2470 by modified microtiter broth dilution method; format: functional
Staphylococcus aureus [22] = test: Antibacterial activity against Staphylococcus aureus MTCC 96 by modified microtiter broth dilution method; format: functional

Structure (SMILES)	Activity (Staphylococcus aureus [1])	EC50 [2]	Activity (Raoultella planticola [3])	Activity (Escherichia coli [4])	Activity (Staphylococcus aureus [5])	EC50 [6] [µg/mL]	MIC (Pseudomonas aeruginosa [7]) [µg/mL]	Activity (Bacillus subtilis [8])	Activity (Micrococcus luteus [11])	Activity (Erythrocyte)	Activity [12]	MIC (Escherichia coli [13]) [µg/mL]	Activity [14]	MIC (Bacillus subtilis [15]) [µg/mL]	Activity [16]	Stability [17]	Activity (Pseudomonas aeruginosa [18])	MIC (Staphylococcus aureus [19]) [µg/mL]	MIC (Raoultella planticola [20]) [µg/mL]	MIC (Micrococcus luteus [21]) [µg/mL]	other results
COC(=O)Cc1cc(O)cc2oc(-c3ccc(O)cc3O)cc(=O)c12	inactive	Not Active	inactive	inactive	inactive	60.9 (≈ 178 µM)	9 (≈ 26.3 µM)	inactive	inactive												EC50 [9]: 60 µg/mL (≈ 175 µM); EC50 [10]: Not Active
COC(=O)Cc1cc(O)cc2oc(-c3ccc(OC)cc3)cc(=O)c12	inactive		inactive		inactive		37 (≈ 109 µM)		inactive	inactive	inactive	18 (≈ 52.9 µM)	inactive	9 (≈ 26.4 µM)	inactive	Unstable					Activity (NCI60): inactive
O=C1O[C@H]([C@@H](O)CO)C(O)=C1O [ASCORBIC ACID]		139.97 µg/mL (≈ 795 µM)				21.01 (≈ 119 µM)															EC50 [9]: 40.28 µg/mL (≈ 229 µM); EC50 [10]: 119.87 µg/mL (≈ 681 µM)
CCCCCc1cc(=O)c2c(CC(=O)OC)cc(O)cc2o1 [PESTALOTIOPSONE F]				inactive	inactive			inactive	inactive	inactive	inactive		inactive		inactive	Unstable	inactive	9 (≈ 29.6 µM)	9 (≈ 29.6 µM)		
COC(=O)Cc1cc(O)cc2oc(-c3ccc(O)c(O)c3)cc(=O)c12		142 µg/mL (≈ 415 µM)	inactive	inactive	inactive	44.08 (≈ 129 µM)	9 (≈ 26.3 µM)	inactive	inactive									9 (≈ 26.3 µM)			EC50 [9]: 49.99 µg/mL (≈ 146 µM); EC50 [10]: 127.98 µg/mL (≈ 374 µM)
COC(=O)Cc1cc(O)cc2occc(=O)c12	inactive		inactive	inactive	inactive				inactive	inactive	inactive		inactive		inactive	Unstable	inactive				
COC(=O)Cc1cc(O)cc2oc(-c3ccc([N+](=O)[O-])cc3)cc(=O)c12					inactive		9 (≈ 25.3 µM)	inactive		inactive	inactive	37 (≈ 104 µM)	inactive	18 (≈ 50.7 µM)	inactive	Unstable		18 (≈ 50.7 µM)	9 (≈ 25.3 µM)	18 (≈ 50.7 µM)	
CCOC(=O)Cc1cc(O)cc2oc(-c3ccc(O)cc3)cc(=O)c12	inactive	171.54 µg/mL (≈ 504 µM)			inactive	77.71 (≈ 228 µM)						9 (≈ 26.4 µM)		9 (≈ 26.4 µM)			inactive		9 (≈ 26.4 µM)	9 (≈ 26.4 µM)	EC50 [9]: 71.11 µg/mL (≈ 209 µM); EC50 [10]: 151.1 µg/mL (≈ 444 µM)
COC(=O)Cc1cc(O)cc2oc(-c3ccc(O)c(OC)c3)cc(=O)c12							9 (≈ 25.3 µM)			inactive	inactive	4 (≈ 11.2 µM)	inactive	4 (≈ 11.2 µM)	inactive	Unstable		18 (≈ 50.5 µM)	9 (≈ 25.3 µM)	18 (≈ 50.5 µM)	MIC (Staphylococcus aureus [22]): 9 µg/mL (≈ 25.3 µM); Activity (NCI60): inactive
COC(=O)Cc1cc(O)cc2oc(-c3ccc(C)cc3)cc(=O)c12							9 (≈ 27.7 µM)			inactive	inactive	4 (≈ 12.3 µM)	inactive	4 (≈ 12.3 µM)	inactive	Unstable		18 (≈ 55.5 µM)	18 (≈ 55.5 µM)	18 (≈ 55.5 µM)	MIC (Staphylococcus aureus [22]): 9 µg/mL (≈ 27.7 µM); Activity (NCI60): inactive
COC(=O)Cc1cc(O)cc2oc(-c3ccccc3)cc(=O)c12			inactive	inactive	inactive			inactive	inactive	inactive	inactive		inactive		inactive	Unstable	inactive	9 (≈ 29 µM)			
COC(=O)Cc1cc(O)cc2oc(-c3ccc(Cl)cc3)cc(=O)c12			inactive	inactive			37 (≈ 107 µM)	inactive	inactive	inactive	inactive		inactive		inactive	Unstable		75 (≈ 218 µM)			MIC (Staphylococcus aureus [22]): 37 µg/mL (≈ 107 µM)
COC(=O)Cc1cc(O)cc2oc(-c3cc(OC)c(OC)c(OC)c3)cc(=O)c12							18 (≈ 45 µM)			inactive	inactive	18 (≈ 45 µM)	inactive	9 (≈ 22.5 µM)	inactive	Unstable		18 (≈ 45 µM)	9 (≈ 22.5 µM)	4 (≈ 9.99 µM)	MIC (Staphylococcus aureus [22]): 18 µg/mL (≈ 45 µM)
COC(=O)Cc1cc(O)cc2oc(-c3cc(O)ccc3O)cc(=O)c12	inactive	221.12 µg/mL (≈ 646 µM)	inactive		inactive	106.22 (≈ 310 µM)	18 (≈ 52.6 µM)	inactive		inactive	inactive	18 (≈ 52.6 µM)	inactive		inactive	Unstable				37 (≈ 108 µM)	EC50 [9]: 119.11 µg/mL (≈ 348 µM); EC50 [10]: 209.56 µg/mL (≈ 612 µM)
COC(=O)Cc1cc(O)cc2oc(-c3cc(O)c(O)c(O)c3)cc(=O)c12		156.21 µg/mL (≈ 436 µM)		inactive	inactive	50.09 (≈ 140 µM)		inactive	inactive								inactive	9 (≈ 25.1 µM)	9 (≈ 25.1 µM)		EC50 [9]: 55.08 µg/mL (≈ 154 µM); EC50 [10]: 139.76 µg/mL (≈ 390 µM)
COC(=O)Cc1cc(O)cc2oc(-c3cc(OC)cc(OC)c3)cc(=O)c12							9 (≈ 24.3 µM)			inactive	inactive	4 (≈ 10.8 µM)	inactive	18 (≈ 48.6 µM)	inactive	Unstable		18 (≈ 48.6 µM)	18 (≈ 48.6 µM)	9 (≈ 24.3 µM)	MIC (Staphylococcus aureus [22]): 9 µg/mL (≈ 24.3 µM); Activity (NCI60): inactive
COC(=O)Cc1cc(O)cc2oc(-c3cccc(OC)c3Cl)cc(=O)c12	inactive		inactive	inactive				inactive	inactive	inactive	inactive		inactive		inactive	Unstable	inactive				MIC (Staphylococcus aureus [22]): 9 µg/mL (≈ 24 µM)
O=c1cc(-c2ccc(O)c(O)c2)oc2cc(O)cc(O)c12 [LUTEOLIN]		134.1 µg/mL (≈ 468 µM)	inactive			31.01 (≈ 108 µM)		inactive				4 (≈ 14 µM)					inactive	18 (≈ 62.9 µM)		18 (≈ 62.9 µM)	MIC (Staphylococcus aureus [22]): 9 µg/mL (≈ 31.4 µM); EC50 [9]: 44.18 µg/mL (≈ 154 µM); EC50 [10]: 122 µg/mL (≈ 426 µM)
COC(=O)Cc1cc(O)cc2oc(-c3ccc(N)cc3)cc(=O)c12	inactive		inactive	inactive	inactive				inactive	inactive	inactive		inactive	9 (≈ 27.7 µM)	inactive	Unstable	inactive				Activity (NCI60): inactive
COC(=O)Cc1cc(O)cc2oc(-c3ccc(OC)c(O)c3)cc(=O)c12			inactive		inactive		9 (≈ 25.3 µM)	inactive	inactive	inactive	inactive	18 (≈ 50.5 µM)	inactive		inactive	Unstable		37 (≈ 104 µM)			Activity (NCI60): inactive
